# From patent EP0010299A1, “Pharmaceutical composition useful for the treatment of hypercholesteremia” (Merck & Co., Inc., priority 1978, dated 1980)
# Where “and” joins values, the source holds several entries; their conditions need not be identical. Identical values can stand only once.
# Experiments:
# HMG-CoA reductase [1] = settings: fed rats three hours following the administration; Bensch et al. 1978; cited from earlier work
# serum cholesterol = settings: acutely treated rat; Endo et al. 1976; cited from earlier work
# serum sterol levels = settings: Bensch et al. 1978, cited from earlier work
# plasma cholesterol = test: Combination of compound (II) with cholestyramine in dogs, plasma cholesterol; type: in vivo, Male beagles
# Experimental: Male beagles, ranging in weight from 7 to 14 kg. (average 11 kg.), were fed a semi-synthetic diet six weeks prior to the start of the experiment and serum cholesterol levels determined colorimetrically each week in order to obtain base-line values for each dog. At the start of the treatment, animals were divided into three treatment groups. Group A (4 dogs) received 25 mg./kg./day of compound (II) mixed in the diet. Group B (4 dogs) received 12 g./dog/day of cholestyramine mixed' in the diet. Group C (5 dogs) was the untreated control. Treatment was for four weeks, and plasma cholesterol was determined two times per week. After four weeks a combination of compound (II) and cholestyramine was given to dogs in Groups A and B mixed in the diet at 25 mg./kg. and 12 g./dog/day respectively for an additional four weeks. Cholesterol levels were detorminod two times per week during this period.
# HMG-CoA reductase [2] = biological target: T1, HMG-CoA reductase (Rattus norvegicus, UniProt P51639); settings: reductase enzyme; no unit printed (molar concentration); read-out: ED50 in the inhibition test; cited from earlier work
# T1 sequence (P51639 1-887): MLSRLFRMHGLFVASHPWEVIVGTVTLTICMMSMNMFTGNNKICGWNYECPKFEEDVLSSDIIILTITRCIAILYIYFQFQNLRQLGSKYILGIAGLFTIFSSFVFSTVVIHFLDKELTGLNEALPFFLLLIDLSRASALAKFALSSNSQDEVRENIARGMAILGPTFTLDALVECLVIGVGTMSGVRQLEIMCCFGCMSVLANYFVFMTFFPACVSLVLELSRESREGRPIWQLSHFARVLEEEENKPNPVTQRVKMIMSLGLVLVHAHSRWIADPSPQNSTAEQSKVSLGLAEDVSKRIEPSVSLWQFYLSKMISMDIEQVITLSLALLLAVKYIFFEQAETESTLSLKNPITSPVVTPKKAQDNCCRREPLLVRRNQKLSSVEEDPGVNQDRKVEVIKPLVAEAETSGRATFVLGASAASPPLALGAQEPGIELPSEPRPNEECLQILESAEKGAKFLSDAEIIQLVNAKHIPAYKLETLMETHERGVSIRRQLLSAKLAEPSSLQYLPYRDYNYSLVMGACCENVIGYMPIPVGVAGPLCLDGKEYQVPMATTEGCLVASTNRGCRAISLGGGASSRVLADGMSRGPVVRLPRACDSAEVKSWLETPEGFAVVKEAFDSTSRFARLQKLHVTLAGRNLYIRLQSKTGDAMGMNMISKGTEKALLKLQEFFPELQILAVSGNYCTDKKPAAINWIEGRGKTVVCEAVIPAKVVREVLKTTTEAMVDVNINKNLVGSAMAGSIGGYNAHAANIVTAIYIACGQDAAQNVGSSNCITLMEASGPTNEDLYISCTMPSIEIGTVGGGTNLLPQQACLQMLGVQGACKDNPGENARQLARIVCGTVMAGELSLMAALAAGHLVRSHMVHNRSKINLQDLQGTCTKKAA
# [3] = Group A average (4 dogs), compound (II) 25 mg./kg./day mixed in the diet, 4 weeks
# [4] = Group A, individual dogs, compound (II) 25 mg./kg./day mixed in the diet, 4 weeks
compound,measurement,setting,value
"CCC(C)C(=O)OC1CCC=C2C=CC(C)C(CCC3CC(O)CC(=O)O3)C21 (centres unmarked) [compound (II), 1,2,3,7,8,8a-hexahydro-7-methyl-8-[2-(3,4,5,6-tetra-hydro-4-hydroxy-6-oxo-2H-pyran-2-yl]ethyl)-1-naphthyl 2-methyl butanoate]",HMG-CoA reductase,HMG-CoA reductase [1],marked increase
same,serum cholesterol levels,serum cholesterol,reduced
same,liver or liver microsomal cholesterol concentration,serum sterol levels,no change
same,effect on serum sterol levels,serum sterol levels; compared with fed or fasted controls,no effect
same,reduction in plasma cholesterol level plateauing by four weeks,"plasma cholesterol; Fig. 1, Group A, 25 mg./kg./day of compound (II)",36 % of control
same,"PLASMA CHOLESTEROL, 4 Weeks, % change from Start, average",plasma cholesterol; [3],-35.6%
same,"PLASMA CHOLESTEROL, 4 Weeks, average",plasma cholesterol; [3],82.5 mg/dL
same,"PLASMA CHOLESTEROL, 4 Weeks",plasma cholesterol; [4],76 mg./dl and 70 mg./dl and 92 mg./dl (2×)
same,"PLASMA CHOLESTEROL, 4 Weeks, % change from Start",plasma cholesterol; [4],-36.7% and -30.7% and -40.4% and -34.3%
same,"decrease of plasma cholesterol, average","plasma cholesterol; four weeks single agent in the diet: compound (II) 25 mg./kg. (Group A), cholestyramine 12 g./dog/day (Group B)",35.6%
same,IC50,HMG-CoA reductase [2],~10 nM
